Experimental data taken from ChEMBL document CHEMBL1201862, “PubChem BioAssay data set” (2004).
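In this assay, cells in 96-well plates receive the compound at five concentrations for 48 hours. Endpoints are linearly interpolated between the surrounding concentrations. Here, GI50 denotes the concentration required for 50% inhibition of growth.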 Activity calls are given as the source filed them. Cut-off read from the data, not from the text of the source: active = GI50 up to about 1.1 µM and inactive = higher.

How the values were obtained:
Assay in all cases: NCI anticancer screen, dose series, 48 h
CAKI-1 = tested on: CAKI-1
LXFL 529 = tested on: LXFL 529
SK-MEL-2 = tested on: SK-MEL-2
DMS-273 = tested on: DMS-273
ACHN = tested on: ACHN
CCRF-CEM = tested on: CCRF-CEM
OVCAR-5 = tested on: OVCAR-5
SF-295 = tested on: SF-295
HOP-62 = tested on: HOP-62
HL-60 = tested on: HL-60
SF-539 = tested on: SF-539
HOP-92 = tested on: HOP-92
MOLT-4 = tested on: MOLT-4
UACC-62 = tested on: UACC-62
KM12 = tested on: KM12
UACC-257 = tested on: UACC-257
KM-20L2 = tested on: KM-20L2
786-0 = tested on: 786-0
EKVX = tested on: EKVX
DLD-1 = tested on: DLD-1
A549 = tested on: A549
HCC 2998 = tested on: HCC 2998
IGROV-1 = tested on: IGROV-1
SNB-19 = tested on: SNB-19
HCT-15 = tested on: HCT-15
SK-MEL-28 = tested on: SK-MEL-28
SNB-75 = tested on: SNB-75
SK-MEL-5 = tested on: SK-MEL-5
OVCAR-4 = tested on: OVCAR-4
NCI-H226 = tested on: NCI-H226
SF-268 = tested on: SF-268
OVCAR-3 = tested on: OVCAR-3
HT-29 = tested on: HT-29
NCI-H460 = tested on: NCI-H460
HCT-116 = tested on: HCT-116
SNB-78 = tested on: SNB-78
UO-31 = tested on: UO-31
SW-620 = tested on: SW-620
RXF 631 = tested on: RXF 631
HOP-18 = tested on: HOP-18
M14 = tested on: M14
SR = tested on: SR
DMS-114 = tested on: DMS-114
RPMI-8226 = tested on: RPMI-8226
NCI-H23 = tested on: NCI-H23
COLO 205 = tested on: COLO 205
SN12C = tested on: SN12C
RXF 393 = tested on: RXF 393
K562 = tested on: K562
M19-MEL = tested on: M19-MEL
OVCAR-8 = tested on: OVCAR-8
Malme-3M = tested on: Malme-3M
TK-10 = tested on: TK-10
LOX IMVI = tested on: LOX IMVI
XF498 = tested on: XF498
U-251 = tested on: U-251
NCI-H522 = tested on: NCI-H522
SK-OV-3 = tested on: SK-OV-3
A498 = tested on: A498

CN(CCc1ccccn1)/[N+]([O-])=N/O.CNCCc1ccccn1
GI50 (CAKI-1): > 100 µM (inactive) | GI50 (LXFL 529): > 100 µM (inactive) | GI50 (SK-MEL-2): > 100 µM (inactive) | GI50 (DMS-273): > 100 µM (inactive) | GI50 (ACHN): > 100 µM (inactive) | GI50 (CCRF-CEM): > 100 µM (inactive) | GI50 (OVCAR-5): > 100 µM (inactive) | GI50 (SF-295): > 100 µM (inactive) | GI50 (HOP-62): > 100 µM (inactive) | GI50 (HL-60): > 100 µM (inactive) | GI50 (SF-539): > 100 µM (inactive) | GI50 (HOP-92): > 100 µM (inactive) | GI50 (MOLT-4): > 100 µM (inactive) | GI50 (UACC-62): > 100 µM (inactive) | GI50 (KM12): > 100 µM (inactive) | GI50 (UACC-257): > 100 µM (inactive) | GI50 (KM-20L2): > 100 µM (inactive) | GI50 (786-0): > 100 µM (inactive) | GI50 (EKVX): > 100 µM (inactive) | GI50 (DLD-1): > 100 µM (inactive) | GI50 (A549): > 100 µM (inactive) | GI50 (HCC 2998): > 100 µM (inactive) | GI50 (IGROV-1): > 100 µM (inactive) | GI50 (SNB-19): > 100 µM (inactive) | GI50 (HCT-15): > 100 µM | GI50 (SK-MEL-28): > 100 µM (inactive) | GI50 (SNB-75): > 100 µM (inactive) | GI50 (SK-MEL-5): > 100 µM (inactive) | GI50 (OVCAR-4): > 100 µM (inactive) | GI50 (NCI-H226): > 100 µM (inactive) | GI50 (SF-268): > 100 µM (inactive) | GI50 (OVCAR-3): > 100 µM (inactive) | GI50 (HT-29): > 100 µM (inactive) | GI50 (NCI-H460): > 100 µM (inactive) | GI50 (HCT-116): > 100 µM (inactive) | GI50 (SNB-78): > 100 µM (inactive) | GI50 (UO-31): > 100 µM (inactive) | GI50 (SW-620): > 100 µM (inactive) | GI50 (RXF 631): > 100 µM (inactive) | GI50 (HOP-18): > 100 µM (inactive) | GI50 (M14): > 100 µM (inactive) | GI50 (SR): > 100 µM (inactive) | GI50 (DMS-114): > 100 µM (inactive) | GI50 (RPMI-8226): > 100 µM (inactive) | GI50 (NCI-H23): > 100 µM (inactive) | GI50 (COLO 205): > 100 µM (inactive) | GI50 (SN12C): > 100 µM (inactive) | GI50 (RXF 393): > 100 µM (inactive) | GI50 (K562): > 100 µM (inactive) | GI50 (M19-MEL): > 100 µM (inactive) | GI50 (OVCAR-8): > 100 µM (inactive) | GI50 (Malme-3M): > 100 µM (inactive)

CC(=O)COC(=O)CC(C)=O
GI50 (CAKI-1): > 100 µM (inactive) | GI50 (LXFL 529): > 100 µM (inactive) | GI50 (SK-MEL-2): > 100 µM (inactive) | GI50 (DMS-273): > 100 µM (inactive) | GI50 (ACHN): > 100 µM (inactive) | GI50 (CCRF-CEM): > 100 µM (inactive) | GI50 (OVCAR-5): > 100 µM (inactive) | GI50 (SF-295): > 100 µM (inactive) | GI50 (TK-10): > 100 µM (inactive) | GI50 (HOP-62): > 100 µM (inactive) | GI50 (HL-60): > 100 µM (inactive) | GI50 (SF-539): > 100 µM (inactive) | GI50 (MOLT-4): > 100 µM (inactive) | GI50 (UACC-62): > 100 µM (inactive) | GI50 (KM12): > 100 µM (inactive) | GI50 (UACC-257): > 100 µM (inactive) | GI50 (KM-20L2): > 100 µM (inactive) | GI50 (786-0): > 100 µM (inactive) | GI50 (EKVX): > 100 µM (inactive) | GI50 (DLD-1): > 100 µM (inactive) | GI50 (A549): > 100 µM (inactive) | GI50 (HCC 2998): > 100 µM (inactive) | GI50 (IGROV-1): > 100 µM (inactive) | GI50 (SNB-19): > 100 µM (inactive) | GI50 (HCT-15): > 100 µM | GI50 (SK-MEL-28): > 100 µM (inactive) | GI50 (SNB-75): > 100 µM (inactive) | GI50 (LOX IMVI): > 100 µM (inactive) | GI50 (OVCAR-4): > 100 µM (inactive) | GI50 (NCI-H226): > 100 µM (inactive) | GI50 (SF-268): > 100 µM (inactive) | GI50 (XF498): > 100 µM (inactive) | GI50 (U-251): > 100 µM (inactive) | GI50 (OVCAR-3): > 100 µM (inactive) | GI50 (HT-29): > 100 µM (inactive) | GI50 (NCI-H460): > 100 µM (inactive) | GI50 (HCT-116): > 100 µM (inactive) | GI50 (NCI-H522): > 100 µM (inactive) | GI50 (UO-31): > 100 µM (inactive) | GI50 (SW-620): > 100 µM (inactive) | GI50 (RXF 631): > 100 µM (inactive) | GI50 (M14): > 100 µM (inactive) | GI50 (SR): > 100 µM (inactive) | GI50 (DMS-114): > 100 µM (inactive) | GI50 (RPMI-8226): > 100 µM (inactive) | GI50 (NCI-H23): > 100 µM (inactive) | GI50 (COLO 205): > 100 µM (inactive) | GI50 (SN12C): > 100 µM (inactive) | GI50 (RXF 393): > 100 µM (inactive) | GI50 (K562): > 100 µM (inactive) | GI50 (SK-OV-3): > 100 µM (inactive) | GI50 (M19-MEL): > 100 µM (inactive) | GI50 (OVCAR-8): > 100 µM (inactive) | GI50 (Malme-3M): > 100 µM (inactive)

COc1cc2c(cc1OC)[C@@H](C(O)c1ccccc1)NCC2 (some centres not stated)
GI50 (CAKI-1): > 100 µM (inactive) | GI50 (LXFL 529): > 100 µM (inactive) | GI50 (SK-MEL-2): > 100 µM (inactive) | GI50 (DMS-273): > 100 µM (inactive) | GI50 (ACHN): > 100 µM (inactive) | GI50 (CCRF-CEM): > 100 µM (inactive) | GI50 (OVCAR-5): > 100 µM (inactive) | GI50 (SF-295): > 100 µM (inactive) | GI50 (TK-10): > 100 µM (inactive) | GI50 (HOP-62): > 100 µM (inactive) | GI50 (HL-60): > 100 µM (inactive) | GI50 (SF-539): > 100 µM (inactive) | GI50 (A498): > 100 µM (inactive) | GI50 (HOP-92): > 100 µM (inactive) | GI50 (MOLT-4): > 100 µM (inactive) | GI50 (UACC-62): > 100 µM (inactive) | GI50 (KM12): > 100 µM (inactive) | GI50 (UACC-257): > 100 µM (inactive) | GI50 (KM-20L2): > 100 µM (inactive) | GI50 (786-0): > 100 µM (inactive) | GI50 (EKVX): > 100 µM (inactive) | GI50 (DLD-1): > 100 µM (inactive) | GI50 (A549): > 100 µM (inactive) | GI50 (HCC 2998): > 100 µM (inactive) | GI50 (IGROV-1): > 100 µM (inactive) | GI50 (SNB-19): > 100 µM (inactive) | GI50 (HCT-15): > 100 µM | GI50 (SNB-75): 54.6 µM (inactive) | GI50 (SK-MEL-5): > 100 µM (inactive) | GI50 (LOX IMVI): > 100 µM (inactive) | GI50 (OVCAR-4): > 100 µM (inactive) | GI50 (NCI-H226): > 100 µM (inactive) | GI50 (SF-268): > 100 µM (inactive) | GI50 (XF498): > 100 µM (inactive) | GI50 (U-251): > 100 µM (inactive) | GI50 (OVCAR-3): > 100 µM (inactive) | GI50 (HT-29): > 100 µM (inactive) | GI50 (NCI-H460): > 100 µM (inactive) | GI50 (HCT-116): > 100 µM (inactive) | GI50 (SNB-78): > 100 µM (inactive) | GI50 (NCI-H522): > 100 µM (inactive) | GI50 (UO-31): > 100 µM (inactive) | GI50 (SW-620): > 100 µM (inactive) | GI50 (RXF 631): > 100 µM (inactive) | GI50 (M14): > 100 µM (inactive) | GI50 (SR): > 100 µM (inactive) | GI50 (DMS-114): > 100 µM (inactive) | GI50 (NCI-H23): > 100 µM (inactive) | GI50 (COLO 205): > 100 µM (inactive) | GI50 (SN12C): > 100 µM (inactive) | GI50 (RXF 393): > 100 µM (inactive) | GI50 (K562): > 100 µM (inactive) | GI50 (SK-OV-3): > 100 µM (inactive) | GI50 (M19-MEL): > 100 µM (inactive) | GI50 (OVCAR-8): > 100 µM (inactive) | GI50 (Malme-3M): > 100 µM (inactive)
